System: angiogenesis
Experiment: Inhibition of angiogenesis: in vivo rat model, pellet with angiogenic material (VEGF) and MMP inhibitor, corneal neovascularization scored after one week
Details: pellet implant
Experimental: Inhibition of Angiogenesis
The activity of MMP inhibitors, preferably MMP-2 or MMP-9 inhibitors, for inhibiting angiogenesis can be determined according to the following in vivo rat model. A 10µg pellet containing an angiogenic material, such as vascular endothelial growth factor (VEGF) and a matrix metalloproteinase inhibitor or placebo, is implanted intraorbitally. After one week the eyes are removed and the degree of inhibition of angiogenesis is determined qualitatively. Inhibitors with IC50's of less than 10nm reduced angiogenesis. […]

With `CC(C)(NS(=O)(=O)c1ccc(Oc2ccc(F)cc2)cc1)C(=O)NO` [2-[4-(4-Fluoro-phenoxy)-benzenesulfonylamino]-N-hydroxy-2-methyl-propionamide] the “% Response” value (10ng + VEGF) was 20%, the “Corneal Neovascularization (#Positive Response/#Response)” value (shortened to “Corneal Neovascularization”) (10ng + VEGF) was 1/5 and the “% Response” value (25ng + VEGF) was 17%. The “Corneal Neovascularization” value (25ng + VEGF) was 1/6, the “% Response” value (50ng + VEGF) was 0% and the “Corneal Neovascularization” value (50ng + VEGF) was 0/5. The “% Response” value (100ng + VEGF) was 0% and the “Corneal Neovascularization” value (100ng + VEGF) was 0/5.
With `O=C(NO)C1C2CCC(O2)C1S(=O)(=O)c1ccc(Oc2ccccc2)cc1` (stereo not drawn) [3-(4-Phenoxy-benzenesulfonyl)-7-oxa-bicyclo[2.2.1]heptane-2-carboxylic acid hydroxyamide] the “% Response” value (10ng + VEGF) was 25%, the “Corneal Neovascularization” value (10ng + VEGF) was 4/4 and the “% Response” value (25ng + VEGF) was 60%. The “Corneal Neovascularization” value (25ng + VEGF) was 3/5, the “% Response” value (50ng + VEGF) was 40% and the “Corneal Neovascularization” value (50ng + VEGF) was 2/5. The “% Response” value (100ng + VEGF) was 20% and the “Corneal Neovascularization” value (100ng + VEGF) was 1/5.
`O=C(O)CCN(C1(C(=O)NO)CCCC1)S(=O)(=O)c1ccc(Oc2ccc(F)cc2)cc1` [3-[[4-(4-Fluoro-phenoxy)-benzenesulfonyl]-(1-hydroxycarbamoyl-cyclopentyl)-amino]-propionic acid] was tested, and the “% Response” value (10ng + VEGF) was 25%, the “Corneal Neovascularization” value (10ng + VEGF) was 1/4 and the “% Response” value (25ng + VEGF) was 17%. For the same compound, the “Corneal Neovascularization” value (25ng + VEGF) was 1/6, the “% Response” value (50ng + VEGF) was 0% and the “Corneal Neovascularization” value (50ng + VEGF) was 0/5. The “% Response” value (100ng + VEGF) was 0% and the “Corneal Neovascularization” value (100ng + VEGF) was 0/5.
